Experiments:
human macrophages = experiment: ROS production by M2 macrophages (DHE labelling, flow cytometry); format: cell-based; details: 2 hours, final cisplatin concentration 25 μM, basal (CTL) 8.2%
Description: After 7 days of culture in human M-CSF from Miltenyi, Biotec. (Macrophage Colony-Stimulating Factor) at 100 ng/ml, human macrophages were differentiated, from monocytes, into M2 alternative phenotype macrophages (protumoral). […] The production of reactive oxygen species (ROS, representative of an anti-tumour action) by the macrophages was then determined by flow cytometry after labelling with Dihydroethidium (DHE). […] Furthermore, the native HDLs, native LDLs and the LDL-Cis had no effect on ROS production by the macrophages.
The same protocol was repeated so as to compare the effect between the HDL-Cis and the oxidised LDL lipoproteins charged with cisplatin (LDLox+Cis) (see FIG. 2C). […] The oxidised LDLs were obtained by incubating native
LDLs (cholesterol, 1 mM) for 24 hours at 37° C. in the presence of copper sulphate (5 μM). After oxidation, the oxidised LDLs are dialysed in a PBS buffer.

[1] = tested on: SW480 colorectal cancer lines; experiment: Cell viability of SW480 cells by flow cytometry; format: cell-based; details: SW480, 48 hours, final cisplatin concentration 25 μM
Description: The cell viability was then evaluated by flow cytometry.

`N.N.[Cl][Pt][Cl]` [non-vectorised cisplatin, Cis-diamine-dichloro-platinum (II)] was tested, and the “ROS production / macrophage activation” value (human macrophages) was 18.2% and the cancer cell mortality [1] was 41%.
